# Source: patent publication US20100184113A1, “CONTROLLING OSTEOGENESIS BY INHIBITION OF OSTEOGENIC SUPPRESSORS” (The Scripps Research Institute Office of Patent Counsel, priority 2006, published 2010)
# How the values were obtained:
# Format in all cases: cell-based, human
# hMSCs [1] = assay: Compound treatment on OS-induced osteogenic differentiation of hMSCs (ALP / alizarin red staining); conditions: for osteogenic differentiation of hMSCs combined with OS treatment: compound plus OS media
# Protocol: (§1) 8-CPT-cAMP, Na (cat# 116812), 5-Iodotubercidin (cat# 407900), Prostaglandin E2 (PGE2, cat# 538904), SB 202190 (cat# 559388) and U0126 (cat# 662005) were purchased from Calbiochem; N6,2′-O-Dibutyryl-cAMP (cat# D0260-5MG), forskolin (cat# F6886), ascorbic acid 2-phosphate (cat# 49752-10G), (3-glycerophosphate (G-6251), dexamethasone (D8893), 3-isobutyl-1-methylxanthine (IBMX, 15879) and Insulin (19278) were purchased from Sigma/Aldrich/Fluka.
# (§2) Since the targeted genes are all positively involved in intracellular cAMP signaling, we tested the effect of two compounds of opposing function on cAMP production on osteogenic differentiation of hMSCs, ADK inhibitor 5-iodotubercidin and ADCY activator forskolin (Cottam, H. B. et al., J Med Chem 36:3424-3430 (1993); de Souza, N. J. et al., Med Res Rev 3:201-219 (1983)). […] ATP has been shown as a ligand for P2RY11 receptor (Communi et al., 1997). […] The present observations are consistent with the conclusion that […] in hMSCs, and vice versa.
# hMSCs [2] = assay: Adipogenic differentiation of hMSCs, Oil Red O staining; conditions: for differentiation of hMSCs into mature adipocytes: cAMP analog combined with dexamethasone; for cell fate commitment osteogenic vs adipogenic: compound combined with the OS media; for adipogenic differentiation of hMSCs, cAMP-raising compounds: compound treatment, especially in the presence of dexamethasone (FIG. 7b)
# Protocol: Cells were rinsed with PBS twice, fixed in 10% formalin solution for 20 minutes, rinsed with PBS twice and dH2O once, washed with propylene glycol for 5 minutes, and stained with Oil red in propylene glycol (12722A, Newcomer Supply) for 30 minutes. Cells were then washed with 85% propylene glycol for 5 minutes, rinsed with dH2O 3 times and preserved in 50% glycerol.
# as §1
# Bone cell maturation is accompanied by extracellular matrix (ECM) mineralization (John Bilezikian et al., Principles of bone biology, Vol 1, 2nd edn: Academic Press) (2002)). To examine whether the osteogenic differentiation of hMSCs induced by the hit siRNAs can further proceed to the maturation stage, hit siRNA treated cells were cultured for 20 days. […] These observations are consistent with the conclusion that the targeted genes of the ten effective hit siRNAs not only play inhibitory roles in osteogenic specification of hMSCs, but also in bone cell maturation. […] Furthermore, in osteoporotic patients, the number of adipocytes was increased in the marrow, implying a change of cell fate disposition from osteoblast lineage to adipocyte lineage (Justesen, J. et al., Biogerontology 2:165-171 (2001); Meunier, P. et al., Clin Orthop Relat Res 80:147-154 (1971)). We therefore examined the effect of our hit siRNAs on adipogenic differentiation of hMSCs by combined treatment with an adipogenic inducing cocktail (100 μg/ml BMX, 1 μM DEX and 10 μg/ml insulin).
# as §2
# hMSCs [3] = assay: Alizarin red staining for calcium phosphate deposits (ECM mineralization, bone cell maturation); conditions: for intensity of alizarin red staining: OS treatment started three days after siRNA transfection and continued for 9 days (3+9OS), vs siCon
# CREB = assay: Western blot of active (phosphorylated) CREB; conditions: 3 days after transfection, vs siCon treated or untreated
# Protocol: Cell lyses buffer contains 20 mM Tris pH8.0, 1 mM EDTA, 150 mM NaCl and 0.5% NP-40, and before usage, protease inhibitor cocktail (Cat# p8340, Sigma, 1:100 dilution) and phosphatase inhibitor cocktail 2 (Cat# p5726, sigma, 1:100 dilution) were added. Proteins (60 μg/well) were separated in 12% Novex Tris-Glycine gel (Cat# EC6008 box, Invitrogen) and transferred to Nitrocellulose membrane (Cat# LC2001, Invitrogen) using the XCell II blot module system (Cat# E19051, Invitrogen). The membrane was blocked in 5% milk/PBST for 1 hour at room temperature, incubated over night at 4 degree with primary antibody, washed 3 times with PBST (0.05% Tween 20 in PBS), followed by one hour incubation with secondary antibody in 5% milk/PBST and 3 times wash with PBST at room temperature. For antibody against pCREB however, PBST was substituted with PBS in all steps except for the last one. Antibody-bound proteins were detected utilizing ECL Western blotting detection reagent (Amersham Biosciences).
# Anti-phospho-CREB was purchased from Upstate Biotechnology (cat# 06-519); Anti-phospho-p38 was purchased from Cell signaling technology (cat# 9910).
# To find out whether CREB (cAMP Responding Element Binding protein), a common downstream effector of cAMP signaling pathway, is involved in mediating cAMP signaling controlled differentiation of hMSCs, we checked the expression level of the active form of CREB proteins in cells 3 days after siP2RY11, siADK, siGNAS, siSLC12a2 or siCon transfection. […] To further examine the role of CREB in osteogenesis and adipogenesis, a synthetic 24-mer CRE decoy oligonucleotide that can compete with endogenous CRE enhancers for binding proteins was transfected into hMSCs (Park, Y. G. et al., J Biol Chem 274:1573-1580 (1999)), which were then subjected to the treatment of osteogenic or adipogenic induction media.
compound,measurement,setting,value
Oc1ccc(-c2nc(-c3ccncc3)c(-c3ccc(F)cc3)[nH]2)cc1 [SB202190],osteogenic differentiation of hMSCs combined with OS treatment,hMSCs [1],inhibited the osteogenic inducing effect of OS
Nc1ncnc2c1ncn2[C@@H]1O[C@H](COP(=O)(O)OP(=O)(O)OP(=O)(O)O)[C@@H](O)[C@H]1O [ATP],siP2RY11 and siSLC12a2 induced osteogenesis in combination with OS,"hMSCs [1]; OS and ATP added on third day after siRNA transfection, continued for a week, ALP staining",dosage-dependent inhibitory effect
same,osteogenic differentiation of hMSCs combined with OS treatment,hMSCs [1],inhibited the OS-induced osteogenesis of hMSCs
same,number of cells undergoing adipogenic differentiation,hMSCs [2]; ATP treatment of OS-treated hMSCs,slightly increases
"siBIRC4: siRNA UGUGCUACACAGUCAUUAC targeting baculoviral IAP repeat-containing 4 (listed as RNA, chemistry not given here)",intensity of alizarin red staining,hMSCs [3],weak enhancement
COc1cccc(-c2cc(=O)c3ccccc3o2)c1N [PD98059],osteogenic differentiation of hMSCs combined with OS treatment,hMSCs [1],inhibited the osteogenic inducing effect of OS
"siP2RY11: siRNA UGCGGGUGCUCAACGUGGA targeting purinergic receptor P2Y, G-protein coupled, 11 (listed as RNA, chemistry not given here)",intensity of alizarin red staining,hMSCs [3],dramatically enhanced
same,level of pCREB protein,CREB,increased
Nc1ncnc2c1nc(Sc1ccc(Cl)cc1)n2[C@@H]1O[C@@H]2COP(=O)(O)O[C@H]2[C@H]1O [8-CPT-cAMP],differentiation of hMSCs into mature adipocytes,hMSCs [2],sufficient to differentiate hMSCs into mature adipocytes
same,cell fate commitment osteogenic vs adipogenic,hMSCs [2],could switch cell fate commitment from osteogenic to adipogenic
same,"adipogenic differentiation of hMSCs, cAMP-raising compounds",hMSCs [2],promoted hMSCs to undergo adipogenic differentiation
"siADK: siRNA GCCACACAAAGCAGCAACA targeting adenosine kinase (listed as RNA, chemistry not given here)",intensity of alizarin red staining,hMSCs [3],dramatically enhanced
same,"intensity of alizarin red staining, sequential treatment","hMSCs [3]; siRNA (initial 2-4 days) followed by OS media, vs control treatment (FIG. 4)",clearly enhanced the intensity of alizarin red staining
same,level of pCREB protein,CREB,increased
"CC(C)Cn1c(=O)n(C)c(=O)c2[nH]cnc21 [IBMX, 3-isobutyl-1-methylxanthine]",cell fate commitment osteogenic vs adipogenic,hMSCs [2],could switch cell fate determination from osteogenic to adipogenic differentiation
same,"adipogenic differentiation of hMSCs, cAMP-raising compounds",hMSCs [2],promoted hMSCs to undergo adipogenic differentiation
Nc1ncnc2c1c(I)cn2[C@@H]1O[C@H](CO)[C@@H](O)[C@H]1O [5-iodotubercidin],osteogenic differentiation of hMSCs combined with OS treatment,hMSCs [1],significantly enhanced the osteogenic differentiation of hMSCs
same,adipogenic differentiation of hMSCs under compound,"hMSCs [2]; compound plus adipogenic inducing media, oil red o staining (FIG. 7a j-l)",inhibited the adipogenic differentiation of hMSCs in a dose dependent manner
"siSLC12a2: siRNA CCUCUUCGUGGCUACAUCU targeting solute carrier family 12, member 2 (listed as RNA, chemistry not given here)",intensity of alizarin red staining,hMSCs [3],dramatically enhanced
same,level of pCREB protein,CREB,increased
"siKCNT1: siRNA UGCGAGCCAAGAUGGACAA targeting potassium channel, subfamily T, member 1 (listed as RNA, chemistry not given here)",intensity of alizarin red staining,hMSCs [3],dramatically enhanced
"siGBDR1: siRNA CCCGAAAACAUUGCUAGCA targeting putative glialblastoma cell differentiation-related (listed as RNA, chemistry not given here)",intensity of alizarin red staining,hMSCs [3],dramatically enhanced
"siTBX3: siRNA UGCCAAAGAGGAUGUACAU targeting T-box 3 (ulnar mammary syndrome) (listed as RNA, further chemistry not given here)",intensity of alizarin red staining,hMSCs [3],no significant effect
"siGNAS: siRNA UCGAAGAUUGAGGACUACU targeting GNAS complex locus (listed as RNA, chemistry not given here)",intensity of alizarin red staining,hMSCs [3],dramatically enhanced
same,level of pCREB protein,CREB,increased
"CCCCC[C@H](O)/C=C/[C@H]1[C@H](O)CC(=O)[C@@H]1C/C=C\CCCC(=O)O [PGE2, Prostaglandin E2]",cell fate commitment osteogenic vs adipogenic,hMSCs [2],could switch cell fate determination from osteogenic to adipogenic differentiation
"siADCY8: siRNA GGAGAUCAACAAGCAUUCA targeting adenylate cyclase 8 (listed as RNA, chemistry not given here)",intensity of alizarin red staining,hMSCs [3],weak enhancement
"siBCL212: siRNA CCCAGGUCUCCGAUGAACU targeting BCL2-like 2 (listed as RNA, chemistry not given here)",intensity of alizarin red staining,hMSCs [3],modest enhancement
"CCCC(=O)Nc1ncnc2c1ncn2[C@@H]1O[C@@H]2COP(=O)(O)O[C@H]2[C@H]1OC(=O)CCC [DB-cAMP, N6,2′-dibutyryl-cAMP]",differentiation of hMSCs into mature adipocytes,hMSCs [2],sufficient to differentiate hMSCs into mature adipocytes
same,"adipogenic differentiation of hMSCs, cAMP-raising compounds",hMSCs [2],promoted hMSCs to undergo adipogenic differentiation
